Results from patent US20190016689A1, “NOVEL FLUORINATED QUINAZOLINE DERIVATIVES AS EGFR INHIBITORS” (TRILLIUM THERAPEUTICS INC., priority 2016, published 2019).
Like-named read-outs stand apart in the source and are kept apart here.

Experiments:
[1] = Plasma protein binding (equilibrium dialysis); format: in vitro ADME; conditions: pH 7.4, dialysis 6 hours
Experimental: Prepare a basic solution by dissolving 14.2 g/L Na2HPO4 and 8.77 g/L NaCl in deionized water. Store at 4° C. for up to 7 days. Prepare an acidic solution by dissolving 15.6 g/L NaH2PO4.2H2O and 8.77 g/L NaCl in deionized water. Store at 4° C. for up to 7 days. Titrate the basic solution with the acidic solution to pH 7.4. Store at 4° C. for up to 7 days. Check pH on the day of experiment and adjust if outside specification of 7.4±0.1.
b—Preparation of Dialysis Membranes Soak the dialysis membranes in ultrapure water for 60 minutes to separate strips, then in 20% ethanol for 20 minutes, finally in dialysis buffer for 20 minutes. c—Preparation of Plasma
Thaw the frozen plasma immediately in a 37° C. water bath.
Centrifuge plasma at 3,220 g for 10 minutes at room temperature to remove clots and collect supernatant into a fresh tube. Check and record the pH of the plasma.
Note: a) Only use plasma that has been thawed no more than twice since arrival. b) Only use plasma within the range of pH 7 to pH 8.
The working solutions of test compound and control compound ketoconazole are prepared in 50% water/50% acetonitrile and DMSO at the concentration of 200 μM, respectively. And then remove 3 μL of working solution to mix with 597 μL of human, rat and mouse plasma to achieve final concentration of 1 μM (0.5% DMSO). Vortex thoroughly.
Assemble the dialysis set up following the manufacturer's instructions. Load cells with 120 μL of plasma sample and dialyzed against equal volume of dialysis buffer (PBS). The assay is performed in duplicate. Seal the dialysis plate and place the plate in an incubator at 37° C. with 5% CO2 at approximately 100 rpm for 6 hours. At the end of dialysis, remove seal and pipette 50 μL each of post-dialysis samples from both buffer and plasma chambers into separate tubes in plate.
Add 50 μL of blank plasma to the buffer samples, and an equal volume of PBS to the collected plasma samples. Add 300 μL of room temperature quench solution (acetonitrile containing internal standards (IS, 200 nM Labetalol, 100 nM Alprazolam and 2 μM Ketoprofen)) to precipitate protein. Vortex for 5 minutes. Samples in plate are centrifuged at 3,220 g for 30 minutes at room temperature. Transfer 100 μL of the supernatant to a new plate. The supernatant may be diluted with 100 μL or 200 μL water according to the LC/MS signal response and peak shape. Mix well and analyze samples using LC/MS/MS.

P-gp = test: in vitro; conditions: human, Caco-2, pH 7.4
Experimental: At this stage of growth, cell monolayers were fully polarized and differentiated.
The permeability assay buffer was Hanks Balanced Salt Solution containing 10 mM HEPES and 15 mM glucose at a pH of 7.4. The dosing buffer contained 5 μM metoprolol (positive control), 5 μM atenolol (negative control) and 100 μM lucifer yellow. The buffer in the receiver chamber also contained 1% bovine serum albumin (BSA). The dosing solution concentration was 5 μM in the assay buffer. Digoxin (20 μM) was used as Pgp substrate control.
The known Pgp inhibitor was co-dosed at 50 μM with compound at 5 μM.
Cell monolayers were dosed on the apical side (A-to-B) or basolateral side (B-to-A) and incubated at 37° C. in a shaker (65 rpm). Samples were taken from the donor and receiver chambers at 120 minutes. Each determination was performed in duplicate.
Narrow-window mass extraction LC/MS analysis was performed for all samples from this study using a Waters Xevo quadrupole time-of-flight (QTof) mass spectrometer, to determine relative peak areas of parent compound. The percent of transported drug was calculated based on these peak areas, relative to the initial, dosing concentration.

CYP 3A4 = CYP 3A4 (Homo sapiens, UniProt P08684); test: CYP450 inhibition; format: in vitro ADME; conditions: Testosterone
Sequence of CYP 3A4 (P08684 whole entry): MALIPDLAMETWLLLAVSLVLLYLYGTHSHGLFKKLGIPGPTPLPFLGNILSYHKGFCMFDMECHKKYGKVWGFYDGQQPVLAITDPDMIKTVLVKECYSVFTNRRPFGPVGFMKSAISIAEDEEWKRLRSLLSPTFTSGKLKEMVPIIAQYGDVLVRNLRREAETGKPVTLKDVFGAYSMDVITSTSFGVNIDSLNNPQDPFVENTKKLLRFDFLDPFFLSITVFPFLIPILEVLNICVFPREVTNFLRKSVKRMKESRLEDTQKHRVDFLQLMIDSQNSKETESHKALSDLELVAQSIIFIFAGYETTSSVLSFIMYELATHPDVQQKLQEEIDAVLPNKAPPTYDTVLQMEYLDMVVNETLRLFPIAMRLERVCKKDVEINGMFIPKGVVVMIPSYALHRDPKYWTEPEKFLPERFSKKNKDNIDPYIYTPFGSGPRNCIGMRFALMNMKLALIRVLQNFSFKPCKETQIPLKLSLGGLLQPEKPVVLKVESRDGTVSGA
Experimental: Prepare stock solutions of the test compound and positive control compounds described in Table 8 in DMSO at 0, 0.2, 1, 2, 10, 50, 200, 2000 and 10000 μM. Transfer 1 μL of the stock solutions to the Incubation Plate. The final concentrations of test compound or positive control compound are 0, 0.001, 0.005, 0.01, 0.05, 0.25, 1, 10 and 50 μM. All experiments are performed in duplicate.

OVCAR-5 = test: NCI screening panel (SRB); format: cell-based; conditions: Homo sapiens, OVCAR-5 (Ovarian), 48 h; for CC50: read-out: LC50 (the source's name)
UO-31 = test: NCI screening panel (SRB); format: cell-based; conditions: Homo sapiens, UO-31 (Renal), 48 h; for CC50: read-out: LC50 (the source's name)
EGFR (S752-I759del) = EGFR (S752-I759del) (Homo sapiens, UniProt P00533, DEL752-759); test: Kinase assays, selectivity panel (qPCR); conditions: read-out: % Control @ 300 nM
Sequence of EGFR (S752-I759del) (P00533 with tags, fused parts or gaps DEL752-759): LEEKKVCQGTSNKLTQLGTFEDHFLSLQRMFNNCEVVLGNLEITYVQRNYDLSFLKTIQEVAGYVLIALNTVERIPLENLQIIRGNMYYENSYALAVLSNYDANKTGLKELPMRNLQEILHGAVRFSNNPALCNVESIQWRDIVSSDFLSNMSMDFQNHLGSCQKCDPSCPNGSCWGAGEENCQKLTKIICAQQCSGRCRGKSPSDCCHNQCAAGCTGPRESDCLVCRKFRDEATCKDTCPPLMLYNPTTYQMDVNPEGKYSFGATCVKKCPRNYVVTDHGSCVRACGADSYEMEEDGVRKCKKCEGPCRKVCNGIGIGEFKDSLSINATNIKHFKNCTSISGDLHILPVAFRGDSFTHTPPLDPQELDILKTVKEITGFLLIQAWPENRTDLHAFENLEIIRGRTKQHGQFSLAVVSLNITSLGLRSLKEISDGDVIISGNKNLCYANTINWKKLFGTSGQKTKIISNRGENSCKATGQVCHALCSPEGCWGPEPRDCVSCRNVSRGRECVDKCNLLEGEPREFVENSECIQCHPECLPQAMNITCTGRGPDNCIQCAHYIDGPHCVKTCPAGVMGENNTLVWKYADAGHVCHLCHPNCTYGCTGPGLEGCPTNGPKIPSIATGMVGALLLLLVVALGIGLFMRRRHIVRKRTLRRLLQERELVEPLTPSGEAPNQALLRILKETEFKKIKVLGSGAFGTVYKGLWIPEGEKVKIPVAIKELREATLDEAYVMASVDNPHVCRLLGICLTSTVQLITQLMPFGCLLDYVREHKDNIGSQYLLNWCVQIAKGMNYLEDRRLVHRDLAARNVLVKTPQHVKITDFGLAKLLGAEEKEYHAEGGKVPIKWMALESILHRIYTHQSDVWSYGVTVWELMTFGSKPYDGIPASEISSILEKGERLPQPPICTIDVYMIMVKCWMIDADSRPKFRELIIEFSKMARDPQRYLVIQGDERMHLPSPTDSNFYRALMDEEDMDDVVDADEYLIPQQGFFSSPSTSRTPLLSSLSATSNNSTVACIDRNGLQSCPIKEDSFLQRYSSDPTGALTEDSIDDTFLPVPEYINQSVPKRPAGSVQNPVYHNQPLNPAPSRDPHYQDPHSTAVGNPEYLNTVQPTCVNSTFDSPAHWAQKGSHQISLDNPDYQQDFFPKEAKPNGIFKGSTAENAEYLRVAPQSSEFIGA

BLK (B-lymphoid TK) = BLK (B-lymphoid TK) (Homo sapiens, UniProt P51451); test: Kinase assays, selectivity panel (qPCR); conditions: read-out: % Control @ 300 nM
Sequence of BLK (B-lymphoid TK) (P51451 whole entry): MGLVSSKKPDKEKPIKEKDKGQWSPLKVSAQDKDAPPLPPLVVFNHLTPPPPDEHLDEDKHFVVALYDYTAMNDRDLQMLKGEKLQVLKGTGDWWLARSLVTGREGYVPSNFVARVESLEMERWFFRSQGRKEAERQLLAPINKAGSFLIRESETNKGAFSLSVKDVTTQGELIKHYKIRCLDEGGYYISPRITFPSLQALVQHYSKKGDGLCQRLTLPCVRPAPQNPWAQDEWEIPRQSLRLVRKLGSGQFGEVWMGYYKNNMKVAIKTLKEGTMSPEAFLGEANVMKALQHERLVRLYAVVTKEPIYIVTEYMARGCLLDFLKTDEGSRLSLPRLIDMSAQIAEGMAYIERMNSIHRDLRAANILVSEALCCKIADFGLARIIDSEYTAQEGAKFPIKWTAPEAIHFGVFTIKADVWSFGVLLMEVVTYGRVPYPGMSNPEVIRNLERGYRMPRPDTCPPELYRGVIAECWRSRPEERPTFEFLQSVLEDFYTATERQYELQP

[2] = human, read-out: Human Plasma % Bound (converted)
[3] = mouse, read-out: Mouse Plasma % Bound (converted)
[4] = rat, read-out: Rat Plasma % Bound (converted)

| SMILES | fraction unbound at 6 h, 1 μM [1, 2] | fraction unbound at 6 h, 1 μM [1, 3] | fraction unbound at 6 h, 1 μM [1, 4] | efflux ratio at 120 min, 5 µM (P-gp) | IC50 (CYP 3A4) [µM] | GI50 (OVCAR-5) [nM] | CC50 (OVCAR-5) [µM] | GI50 (UO-31) [nM] | CC50 (UO-31) [µM] | remaining activity at 0.3 µM (EGFR (S752-I759del)) [%] | remaining activity at 0.3 µM (BLK (B-lymphoid TK)) [%] |
| --- | --- | --- | --- | --- | --- | --- | --- | --- | --- | --- | --- |
| CN(C)C/C=C/C(=O)Nc1cc2c(Nc3ccc(F)c(Cl)c3)ncnc2cc1O[C@H]1CCOC1 [Afatinib, reference compound] | 0.08 | 0.0666 | 0.0896 |  |  |  |  |  |  |  |  |
| CN(C)C/C=C/C(=O)Nc1cc2c(Nc3cccc(Cl)c3F)ncnc2cc1OCCOC(F)F.O=C(O)/C=C\C(=O)O [Example I-5-MA, (E)-N-[4-(3-chloro-2-fluoro-anilino)-7-[2-(difluoromethoxy)ethoxy]quinazolin-6-yl]-4-(dimethylamino)but-2-enamide dimaleic acid salt] | 0.117 | 0.0975 | 0.0771 | 0.48 | 42 |  |  |  |  |  |  |
| CN(C)C/C=C/C(=O)Nc1cc2c(Nc3ccc(F)c(Cl)c3F)ncnc2cc1OCCOC(F)F.O=C(O)/C=C\C(=O)O.O=C(O)/C=C\C(=O)O [Example I-9-MA, (E)-N-[4-(3-chloro-2,4-difluoro-anilino)-7-[2-(difluoromethoxy)ethoxy]quinazolin-6-yl]-4-(dimethylamino)but-2-enamide di-maleic acid salt] |  |  |  |  |  | 141 | 47.9 | < 10 | 14.6 | 0.5 | 0.5 |
| O=C(/C=C/CN1CCCCC1)Nc1cc2c(Nc3ccc(F)c(Cl)c3F)ncnc2cc1OCCOC(F)F.O=C(O)/C=C\C(=O)O.O=C(O)/C=C\C(=O)O [Example I-10-MA, (E)-N-[4-(3-chloro-2,4-difluoro-anilino)-7-[2-(difluoromethoxy)ethoxy]quinazolin-6-yl]-4-(1-piperidyl)but-2-enamide di-maleic acid salt] |  |  |  |  |  | 776 | 67.1 | 13.4 | 39.1 | 0 | 0.3 |
